US9181255B2, “Fused heteroaromatic pyrrolidinones as SYK inhibitors” (Takeda Pharmaceutical Company Limited, priority 2009, dated 2015)
Counter-ions that a name gives are not always drawn.

Target: SYK (Homo sapiens, UniProt P43405)
Experiment: SYK inhibition assay: SYK-mediated phosphorylation of FAM-labeled substrate (Caliper microfluidic)
Assay type: biochemical
Conditions: read-out: SYK Inhibition (pIC50) (converted)

Row | SMILES | IC50 [nM]
1 | CS(=O)(=O)c1cccc(Nc2nc(N[C@@H]3CCC[C@@H]3N)cc3c2C(=O)NC3)c1 [Example 34, 6-((1R,2S)-2-Aminocyclopentylamino)-4-(3-(methylsulfonyl)phenylamino)-1H-pyrrolo[3,4-c]pyridin-3(2H)-one (HCl salt)] | 316
2 | Cc1cccc(Nc2nc(NCCN)nc3c2C(=O)NC3)c1 [Example 40, 2-(2-Aminoethylamino)-4-(m-tolylamino)-6,7-dihydro-5H-pyrrolo[3,4-d]pyrimidin-5-one] | 251
3 | N[C@H]1CCCC[C@H]1Nc1nc2c(c(-c3cnn(-c4ccc(F)cc4)c3)n1)C(=O)NC2 [Example 100, 2-((1R,2S)-2-Aminocyclohexylamino)-4-(1-(4-fluorophenyl)-1H-pyrazol-4-yl)-6,7-dihydro-5H-pyrrolo[3,4-d]pyrimidin-5-one] | 158
4 | Cc1ccc(-c2nc(N[C@@H]3CCOC[C@@H]3N)c(F)c3c2C(=O)NC3)s1 [Example 123, 6-((3R,4R)-3-Aminotetrahydro-2H-pyran-4-ylamino)-7-fluoro-4-(5-methylthiophen-2-yl)-1H-pyrrolo[3,4-c]pyridin-3(2H)-one] | 7.94
